This is an account of results in PMC7486443, “Generation of Phenothiazine with Potent Anti-TLK1 Activity for Prostate Cancer Therapy” (iScience, 2020).

Targets include EIF2AK1 (Homo sapiens, UniProt Q9BQI3); SRMS (Homo sapiens, UniProt Q9H3Y6); BRAF (Homo sapiens, UniProt P15056); EPHB4 (Homo sapiens, UniProt P54760); CDK2 (Homo sapiens, UniProt P24941); AKT1 (Homo sapiens, UniProt P31749).
What all share (assay): biochemical
Common to all, as to design: DiscoverX KINOMEscan scanMAX competition binding panel, single concentration, percent of control; remaining binding: dose or concentration left out as unconfirmed
Holding throughout (conditions): KINOMEscan binding, percent of control; read-out: Table S4_SCANMAX REPORT - related to Fig. 1 / Percent Control

The next test has as its target T1, ASK2 (Homo sapiens, UniProt O95382).
T1 construct: gene MAP3K6

The target in test [1] is EGFR(L747-S752del, P753S) (Homo sapiens, UniProt P00533, DEL747-752/P753S).
Chain of EGFR(L747-S752del, P753S) (P00533 with tags, fused parts or gaps DEL747-752/P753S): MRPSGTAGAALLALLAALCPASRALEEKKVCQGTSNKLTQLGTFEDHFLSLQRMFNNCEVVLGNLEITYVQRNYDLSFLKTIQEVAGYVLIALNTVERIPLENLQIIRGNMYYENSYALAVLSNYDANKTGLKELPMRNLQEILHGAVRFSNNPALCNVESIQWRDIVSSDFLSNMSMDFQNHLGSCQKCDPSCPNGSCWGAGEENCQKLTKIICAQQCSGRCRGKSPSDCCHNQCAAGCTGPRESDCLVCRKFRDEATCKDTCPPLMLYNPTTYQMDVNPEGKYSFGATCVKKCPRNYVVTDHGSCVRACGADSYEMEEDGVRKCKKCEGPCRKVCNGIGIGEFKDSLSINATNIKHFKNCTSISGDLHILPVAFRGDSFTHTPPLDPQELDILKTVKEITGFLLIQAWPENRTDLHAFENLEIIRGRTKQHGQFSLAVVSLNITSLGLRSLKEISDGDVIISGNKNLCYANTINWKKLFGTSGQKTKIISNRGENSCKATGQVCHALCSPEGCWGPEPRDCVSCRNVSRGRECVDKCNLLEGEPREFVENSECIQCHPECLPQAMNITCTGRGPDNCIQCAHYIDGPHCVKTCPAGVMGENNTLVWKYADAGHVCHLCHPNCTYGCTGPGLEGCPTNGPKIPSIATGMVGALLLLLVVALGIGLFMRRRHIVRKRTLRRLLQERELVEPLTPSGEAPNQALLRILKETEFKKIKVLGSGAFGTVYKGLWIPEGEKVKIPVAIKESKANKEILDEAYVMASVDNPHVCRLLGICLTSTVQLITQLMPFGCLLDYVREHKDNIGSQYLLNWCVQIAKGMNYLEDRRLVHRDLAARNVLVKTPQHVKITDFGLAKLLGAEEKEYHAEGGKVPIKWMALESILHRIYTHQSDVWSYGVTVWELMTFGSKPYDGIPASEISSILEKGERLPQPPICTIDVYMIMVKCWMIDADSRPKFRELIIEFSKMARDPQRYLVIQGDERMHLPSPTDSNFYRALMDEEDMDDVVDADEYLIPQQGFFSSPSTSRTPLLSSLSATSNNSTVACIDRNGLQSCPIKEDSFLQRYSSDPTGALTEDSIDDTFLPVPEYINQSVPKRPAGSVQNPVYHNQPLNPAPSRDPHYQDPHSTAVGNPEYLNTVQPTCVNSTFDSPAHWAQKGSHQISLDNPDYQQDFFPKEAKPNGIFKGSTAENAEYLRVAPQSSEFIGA

Chain of SRMS (Q9H3Y6 whole entry): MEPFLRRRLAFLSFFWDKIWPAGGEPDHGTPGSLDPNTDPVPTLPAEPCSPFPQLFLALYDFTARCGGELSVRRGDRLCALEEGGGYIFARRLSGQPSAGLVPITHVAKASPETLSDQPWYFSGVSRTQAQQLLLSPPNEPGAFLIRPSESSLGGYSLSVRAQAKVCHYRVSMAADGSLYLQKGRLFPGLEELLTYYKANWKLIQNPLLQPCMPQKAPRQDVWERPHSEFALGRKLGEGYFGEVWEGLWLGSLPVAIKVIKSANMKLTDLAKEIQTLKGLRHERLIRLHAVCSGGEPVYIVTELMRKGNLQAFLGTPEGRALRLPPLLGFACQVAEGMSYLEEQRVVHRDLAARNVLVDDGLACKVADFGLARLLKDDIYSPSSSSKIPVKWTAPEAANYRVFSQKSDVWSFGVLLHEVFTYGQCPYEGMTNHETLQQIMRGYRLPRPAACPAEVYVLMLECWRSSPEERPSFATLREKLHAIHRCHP
Chain of BRAF (P15056 whole entry): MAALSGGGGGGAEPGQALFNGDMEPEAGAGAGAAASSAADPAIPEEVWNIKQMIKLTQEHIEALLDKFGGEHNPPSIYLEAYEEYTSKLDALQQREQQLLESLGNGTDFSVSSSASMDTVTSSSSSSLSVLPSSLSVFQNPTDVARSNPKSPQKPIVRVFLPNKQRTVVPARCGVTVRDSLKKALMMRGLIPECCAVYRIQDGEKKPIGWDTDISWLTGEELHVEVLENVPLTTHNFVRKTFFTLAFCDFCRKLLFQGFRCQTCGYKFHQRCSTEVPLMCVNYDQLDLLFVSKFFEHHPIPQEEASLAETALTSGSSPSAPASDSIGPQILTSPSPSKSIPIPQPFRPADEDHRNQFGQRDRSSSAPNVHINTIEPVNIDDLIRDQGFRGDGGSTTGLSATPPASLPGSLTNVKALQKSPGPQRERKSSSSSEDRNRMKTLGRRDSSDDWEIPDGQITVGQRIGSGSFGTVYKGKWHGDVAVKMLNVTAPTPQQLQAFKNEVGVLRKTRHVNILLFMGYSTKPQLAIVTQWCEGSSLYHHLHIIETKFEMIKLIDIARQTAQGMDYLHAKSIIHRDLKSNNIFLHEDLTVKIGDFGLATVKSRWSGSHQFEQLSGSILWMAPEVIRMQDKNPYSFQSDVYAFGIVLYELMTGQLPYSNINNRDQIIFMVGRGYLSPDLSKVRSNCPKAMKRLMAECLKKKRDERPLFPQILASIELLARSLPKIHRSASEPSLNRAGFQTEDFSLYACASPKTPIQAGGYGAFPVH
Chain of EIF2AK1 (Q9BQI3 whole entry): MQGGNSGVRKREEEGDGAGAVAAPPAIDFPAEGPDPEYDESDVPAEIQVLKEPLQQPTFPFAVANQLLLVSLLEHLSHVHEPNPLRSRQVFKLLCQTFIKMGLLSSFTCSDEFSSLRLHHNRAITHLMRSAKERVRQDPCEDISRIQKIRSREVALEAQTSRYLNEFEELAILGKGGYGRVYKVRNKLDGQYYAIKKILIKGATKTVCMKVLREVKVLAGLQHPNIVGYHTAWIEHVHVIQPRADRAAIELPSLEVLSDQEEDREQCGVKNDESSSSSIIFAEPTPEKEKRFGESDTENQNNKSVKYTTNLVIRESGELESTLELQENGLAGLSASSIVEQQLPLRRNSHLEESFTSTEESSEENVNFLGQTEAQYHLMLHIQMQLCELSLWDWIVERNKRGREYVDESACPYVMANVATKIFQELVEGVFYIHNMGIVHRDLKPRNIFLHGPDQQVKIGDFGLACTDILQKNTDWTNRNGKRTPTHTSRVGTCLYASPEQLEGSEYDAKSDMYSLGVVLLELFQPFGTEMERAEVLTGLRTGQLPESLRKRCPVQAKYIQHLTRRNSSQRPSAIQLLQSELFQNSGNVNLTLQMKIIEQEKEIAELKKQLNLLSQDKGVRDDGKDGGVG
Chain of AKT1 (P31749 whole entry): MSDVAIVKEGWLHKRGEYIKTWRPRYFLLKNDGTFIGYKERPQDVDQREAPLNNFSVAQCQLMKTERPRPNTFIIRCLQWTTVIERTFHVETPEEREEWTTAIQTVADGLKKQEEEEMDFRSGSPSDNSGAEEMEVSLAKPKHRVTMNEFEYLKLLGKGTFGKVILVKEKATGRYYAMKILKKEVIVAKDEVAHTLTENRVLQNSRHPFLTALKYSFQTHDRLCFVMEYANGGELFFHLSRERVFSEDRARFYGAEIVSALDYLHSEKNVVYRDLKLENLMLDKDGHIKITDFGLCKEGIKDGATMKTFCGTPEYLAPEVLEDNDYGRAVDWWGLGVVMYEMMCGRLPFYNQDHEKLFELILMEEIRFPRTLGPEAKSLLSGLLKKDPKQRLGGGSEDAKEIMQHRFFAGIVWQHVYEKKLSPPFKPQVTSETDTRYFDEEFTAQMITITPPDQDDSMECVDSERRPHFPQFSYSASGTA
Chain of EPHB4 (P54760 whole entry): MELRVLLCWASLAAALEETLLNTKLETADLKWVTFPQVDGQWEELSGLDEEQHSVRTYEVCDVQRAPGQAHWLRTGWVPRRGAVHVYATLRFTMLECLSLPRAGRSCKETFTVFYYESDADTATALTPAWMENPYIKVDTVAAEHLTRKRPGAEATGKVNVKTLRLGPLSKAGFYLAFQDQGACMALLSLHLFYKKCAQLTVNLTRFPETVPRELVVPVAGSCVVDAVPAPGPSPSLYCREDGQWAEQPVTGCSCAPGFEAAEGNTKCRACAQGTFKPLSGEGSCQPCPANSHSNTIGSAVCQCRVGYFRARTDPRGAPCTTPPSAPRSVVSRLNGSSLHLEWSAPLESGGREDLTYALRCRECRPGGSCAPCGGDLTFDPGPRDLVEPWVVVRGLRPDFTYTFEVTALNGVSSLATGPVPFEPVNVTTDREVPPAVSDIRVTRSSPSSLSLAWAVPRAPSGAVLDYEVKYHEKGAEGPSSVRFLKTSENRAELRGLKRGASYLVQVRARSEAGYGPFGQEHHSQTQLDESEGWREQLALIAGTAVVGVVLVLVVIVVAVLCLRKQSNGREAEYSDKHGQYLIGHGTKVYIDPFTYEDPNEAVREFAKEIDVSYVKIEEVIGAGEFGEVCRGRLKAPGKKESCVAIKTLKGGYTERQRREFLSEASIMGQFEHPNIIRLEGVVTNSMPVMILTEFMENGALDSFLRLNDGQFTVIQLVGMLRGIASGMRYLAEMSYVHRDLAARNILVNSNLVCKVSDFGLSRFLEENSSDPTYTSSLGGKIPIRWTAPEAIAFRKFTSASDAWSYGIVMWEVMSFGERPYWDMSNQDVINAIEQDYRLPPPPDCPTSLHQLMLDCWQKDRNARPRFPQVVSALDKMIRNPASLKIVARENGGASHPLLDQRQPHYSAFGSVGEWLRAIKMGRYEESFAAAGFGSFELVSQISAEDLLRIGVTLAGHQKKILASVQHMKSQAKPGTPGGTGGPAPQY

Regarding `c1ccc2c(c1)Sc1ccccc1N2CCN1CCOCC1` [J54], the remaining binding came out at 90% on EIF2AK1; 100% on ASK2; 100% on SRMS; 92% in test [1]; 100% on BRAF; 100% on EPHB4. Moreover, the remaining binding on CDK2 is 92%; at AKT1, 97%.
